Assays:
[1] = test system: L. monocytogenes 149; experiment: CLSM analysis, biofilm prevention; format: cell-based, Listeria monocytogenes; conditions: for proportion of membrane-compromised cells: 24 h; for Thickness (µm) MICBM80 / Thickness (µm) subCBM80: 24 h exposure; for Thickness (µm) MICBM80: substance at its MICBM80, mean ± SD; for Thickness (µm) subCBM80: substance at subinhibitory concentration, mean ± SD
Method: (§1) Biofilm prevention and removal analyses were performed using previously determined minimum inhibitory and subinhibitory concentrations for metabolic activity (MICBM80, subCBM80; MICMPB80, subCMPB80) of NAC, RLs, and UA specific for each tested strain. Selected concentrations were used to evaluate the inhibition of biofilm formation (biofilm prevention) and the reduction in previously formed biofilms (biofilm removal) for the same set of microorganisms, with the exception of S. Infantis, which was excluded from the analysis due to its inability to form biofilm in the selected microtiter plate. Biofilm prevention and removal were observed using CLSM with specific staining to distinguish between live and membrane-compromised cells. Images were analyzed to evaluate (i). the total volume of the biomass, (ii). ratios of live and membrane-compromised cells, and (iii). to calculate biofilm volume reduction for individual organisms after the respective treatment types. The total biofilm volume was normalized by the area of the well and expressed as an average biofilm thickness. Complete data are provided in Supplementary Materials (Tables S1–S8).
(§2) For both inhibition and reduction of biofilms, overnight cultures from BHI were diluted in TSB + 1% Glc to reach an absorbance of 0.08 to 0.1 at 625 nm. The inoculum (150 µL) was transferred into wells of the 96-well flat-bottomed Ibidiμ-Plate (Ibidi, Gräfelfing, Germany) and mixed with 150 µL of each of the three tested substances in technical quadruplicates, followed by incubation at 37 °C for 24 h. Simultaneously, the prepared bacterial suspensions were inoculated to an additional microtiter plate (200 µL) and allowed to form biofilm overnight (18 h at 37 °C). After the incubation, the content of the well was drained off, and 200 µL of each of the three tested substances was added to the plate, which was then incubated for an additional 20 h. The used concentrations of the substances represented the subinhibitory and minimum inhibitory concentrations for metabolic activity (subCBM80, MICBM80; subCMPB80, MICMPB80). Both setups contained a positive control of the bacterial growth (inoculum mixed with sterile TSB + 1% Glc medium) and a control monitoring microbial contamination (sterile medium). Non-treated wells were used as a positive control for comparison between non-treated and treated biofilm mass.
(§3) Prior to the imaging, the wells were stained with the LIVE/DEAD® BacLight™ Bacterial Viability Kit (Thermo Fisher Scientific, MA, USA) following the manufacturer’s guidelines and Drago et al.. Briefly, equal volumes of SYTO® 9 and propidium iodide were combined with the sterile distilled water to reach a final concentration of […]. The biofilm mass was stained using 300 µL of the staining solution per well followed by incubation at 37 °C in the dark for 15 min. Stained wells were washed once with sterile distilled water, which was then added to each well (300 µL). Images were acquired with an inverted Leica SP5 CLSM using a 1.25× dry objective (WD 3.7 mm, Z-resolution 27 µm, up to 24 Z-stacks per well) to visualize an entire well. Samples were kept at the cultivation conditions (37 °C, 5% CO2, 90% humidity) with an OkoLabs stage top environmental chamber (Oko Labs, PA, USA). Fluorophore excitation lasers and emission bandwidths were as follows: SYTO® 9 (ex/em 485/498 nm) 488 nm excitation, 495 to 550 nm emission collection; propidium iodide (ex/em 535/617 nm) 561 nm excitation, 595 to 650 nm emission collection. The laser beam scanned the visual field at a frequency of 600 Hz. The wells were captured in snapshots of 1024 × 1024 pixels representing the area of 153.76 mm^2.
(§4) All collected images were statistically evaluated to quantify biovolume utilizing the surface estimation procedure described in Parker et al.. […]

[2] = test system: L. monocytogenes 164; experiment: CLSM analysis, biofilm prevention; format: cell-based, Listeria monocytogenes; conditions: for Thickness (µm) MICBM80 / Thickness (µm) subCBM80: 24 h exposure; for Thickness (µm) MICBM80: substance at its MICBM80, mean ± SD; for Thickness (µm) subCBM80: substance at subinhibitory concentration, mean ± SD
Method: as §1, §2, §3, §4

[3] = test system: E. coli 683/17; experiment: MIC for metabolic activity of preformed biofilm (MTT reduction assay); format: cell-based, Escherichia coli; conditions: for MICMPB80: ≥80% inhibition, 20 h with substance
Method: (§5) Ten concentrations of NAC, RLs, and UA were tested to determine the minimum inhibitory concentration for planktonic growth, and subsequently, the six highest concentrations were applied on preformed biofilms to evaluate the biofilm eradication ability of the compounds. MIC was defined as the lowest substance concentration able to inhibit at least 80% of microbial growth (MICPC80 for planktonic cells, MICBC80 for further growth of biofilm cells), inhibit 80% of metabolic activity (MICBM80 for biofilm metabolic activity, MICMPB80 for metabolic activity of preformed biofilm), prevent biofilm formation by at least 80% (MICBF80 for biofilm formation), or reduce a preformed biofilm by at least 80% (MICBR80 for biofilm reduction). The results of MICs are summarized in Table 1 (planktonic cells) and Table 2 (biofilm-associated cells).
(§6) The determination of MICs was performed according to Chlumsky et al.. Briefly, 96-well flat-bottomed microtiter plates were inoculated with 75 µL (for biofilm formation) or 100 µL (for preformed biofilm) of bacterial suspension (A625nm 0.08 to 0.1) in technical triplicates and were then carefully mixed with the dilution series of the test substances (24 h cultivation at 25 °C for S. Infantis, 37 °C for other strains) or were directly cultivated to preform biofilms (18 h). For a positive control of bacterial growth, the inoculum was mixed with a pure sterile medium. Furthermore, the sterile medium was included in the plate as a marker of potential microbial contamination. To evaluate planktonic cells growth (MICPC80) and further growth of biofilm cells (MICBC80), the optical density of the content of the microtiter plates was measured spectrophotometrically at 625 nm before and after 24 h (for biofilm formation) of cultivation or before and after additional 20 h incubation with the tested compound (for preformed biofilm). The difference of A625nm was considered as a measure of the ability of cells to grow in the presence of the tested substances. To evaluate the inhibition of biofilm formation (MICBF80) and reduction in preformed biofilms (MICBR80), biomass was quantified using crystal violet staining, and its metabolic activity (MICBM80 and MICMPB80) was estimated by using the MTT (thiazyl tetrazolium bromide, Sigma-Aldrich, USA) reduction assay, both measured spectrophotometrically at 595 nm.
(§7) All inhibitions were calculated using the formula of Chlumsky et al. below (Equation (1)):(1) A625(595)nm inhibition (%)=A625(595)nm (control) – A625(595)nm(natural substance)/A625(595)nm (control)× 100 where A625(595)nm (control) is the absorbance of bacterial suspension/biofilm itself, and A625(595)nm(natural substance) is the absorbance of the bacterial suspension/biofilm with the added natural substance (NAC, RLs, and UA).
(§8) When the minimum inhibitory concentration could not be determined, the MIC was established as >the highest tested concentration for NAC, RLs, and UA.

[4] = test system: E. coli 693/17; experiment: as above; format: cell-based, Escherichia coli
Method: as §5, §6, §7, §8

Row | Structure (SMILES) | proportion of membrane-compromised cells ([1]; MIC and subinhibitory concentration) | Thickness (µm) MICBM80 [1] | Thickness (µm) subCBM80 [1] | proportion of membrane-compromised cells, increase ([2]; 24 h, MIC) | Thickness (µm) MICBM80 [2] | Thickness (µm) subCBM80 [2] | MICMPB80 [3] | MICMPB80 ([4]; ≥80% inhibition, 20 h with substance) | proportion of membrane-compromised cells ([1]; MIC) | maximal achieved inhibition (MICMPB80 not reached) ([3]; within tested concentrations) | maximal achieved inhibition (MICMPB80 not reached) ([4]; within tested concentrations)
1 | CC(=O)N[C@@H](CS)C(=O)O [NAC, N-Acetyl-L-cysteine] | up to 25% | 86.5 ± 2.6 µm | 238 ± 32 µm | about 45% | 158 ± 93.2 µm | 288 ± 40.6 µm | 12,500 µg/mL | 12,500 µg/mL | – | – | –
2 | CC(=O)c1c(O)c(C)c(O)c2c1OC1=CC(=O)C(C(C)=O)C(=O)C12C (single isomer, unassigned; (+)) [UA, (+)-usnic acid] | – | 175 ± 79.4 µm | 268 ± 68.9 µm | – | 325 ± 70.5 µm | 417 ± 40.4 µm | > 31.3 µg/mL | – | up to 15% | 45% | 20%

— paper PMC8583417, “Evaluation of the Antimicrobial Efficacy of N-Acetyl-L-Cysteine, Rhamnolipids, and Usnic Acid—Novel Approaches to Fight Food-Borne Pathogens” (International Journal of Molecular Sciences, 2021)
